From PubChem BioAssay AID330 (DTP/NCI, 2004) come the findings set out here.

The experiment deals with P388 leukemia ip, CD2F1 mice, survival T/C. The experiment in a line: NCI In Vivo Anticancer Drug Screen. Data for tumor model P388 Leukemia (intraperitoneal) in CD2F1 (CDF1) mice. The note with it: endpoint: median survival time, higher = longer survival. An outline of the steps: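 Mice carrying the transplanted tumor received test compound or vehicle. Survival was recorded in each group, and the value is the treated-group measurement divided by that of the vehicle-treated control group.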

Where [1] appears, read: dose: 12.5 mg/kg/injection, schedule: Q01DX009 (ip), vehicle: Klucel (hydroxypropylcellulose) (HPC).
[2] abbreviates: dose: 25.0 mg/kg/injection, schedule: Q01DX009 (ip), vehicle: Klucel (hydroxypropylcellulose) (HPC).
Where [3] appears, read: dose: 100.0 mg/kg/injection, schedule: Q01DX009 (ip), vehicle: Klucel (hydroxypropylcellulose) (HPC).
Setting [4] is: dose: 50.0 mg/kg/injection, schedule: Q01DX005 (ip), vehicle: Klucel (hydroxypropylcellulose) (HPC).
Setting [5] is: dose: 60.0 mg/kg/injection, schedule: Q01DX005 (ip), vehicle: saline with Tween-80.
[6] abbreviates: dose: 120.0 mg/kg/injection, schedule: Q01DX005 (ip), vehicle: saline with Tween-80.
[7] abbreviates: dose: 240.0 mg/kg/injection, schedule: Q01DX005 (ip), vehicle: saline with Tween-80.
Where [8] appears, read: dose: 50.0 mg/kg/injection, schedule: Q01DX009 (ip), vehicle: saline with Tween-80.
Setting [9] is: dose: 50.0 mg/kg/injection, schedule: Q01DX005 (ip), vehicle: saline with Tween-80.
[10] abbreviates: dose: 12.5 mg/kg/injection, schedule: Q01DX009 (ip), vehicle: saline.
The mark [11] stands for this setting: dose: 50.0 mg/kg/injection, schedule: Q01DX009 (ip), vehicle: saline.
Setting [12] is: dose: 100.0 mg/kg/injection, schedule: Q04DX003 (ip), vehicle: saline with Tween-80.
Where [13] appears, read: dose: 200.0 mg/kg/injection, schedule: Q04DX003 (ip), vehicle: saline with Tween-80.
[14] abbreviates: dose: 400.0 mg/kg/injection, schedule: Q04DX003 (ip), vehicle: saline with Tween-80.
Where [15] appears, read: dose: 25.0 mg/kg/injection, schedule: Q01DX009 (ip), vehicle: saline.

The structures appear in SMILES notation. Where “and” joins values, the source holds several entries; their conditions need not be identical. Equal values may be shown once. Inconclusive results and toxic doses are left out.

For `CN=C(NC)c1ccc(NC(=O)c2ccc(C(=O)Nc3ccc(C(=NC)NC)cc3)c(Cl)c2)cc1`, the T/C (dose: 18.0 mg/kg/injection, schedule: Q01DX010 (ip), vehicle: saline) is 218 % of control; the T/C (dose: 27.0 mg/kg/injection, schedule: Q01DX010 (ip), vehicle: saline) was 254 % of control; the T/C (dose: 40.0 mg/kg/injection, schedule: Q01DX010 (ip), vehicle: saline) was 209 % of control; the T/C (dose: 60.0 mg/kg/injection, schedule: Q01DX010 (ip), vehicle: saline) is 154 % of control.

With `Nc1nc(-c2ccccc2N=NN2CCCCC2)nc2ccccc12`, the T/C reads like this: under setting [1], 111 % of control; under setting [2], 102 % of control; (dose: 50.0 mg/kg/injection, schedule: Q01DX009 (ip), vehicle: Klucel (hydroxypropylcellulose) (HPC)) 104 % of control; under setting [3], 110 % of control and 113 % of control.

`CCCCOC(=O)c1ccccc1OP(=O)(N(C)C)N(C)C`: the T/C (dose: 50.0 mg/kg/injection, schedule: Q01DX005 (ip), vehicle: saline) is 107 % of control and the T/C (dose: 100.0 mg/kg/injection, schedule: Q01DX005 (ip), vehicle: saline) was 103 % of control.

For `C=C(F)F`, the T/C runs as follows: under setting [4], 95 % of control; (dose: 100.0 mg/kg/injection, schedule: Q01DX005 (ip), vehicle: Klucel (hydroxypropylcellulose) (HPC)) 101 % of control; (dose: 200.0 mg/kg/injection, schedule: Q01DX005 (ip), vehicle: Klucel (hydroxypropylcellulose) (HPC)) 103 % of control.

Turning to `C=C(C)C12CC(C)C34OC5(OC1C3C1OC1(CO)C(O)C1(O)C(OC(=O)c3ccccc3)C(C)C(C(C)CCCCCCC5O)C14)O2` (stereo not given), the T/C by setting is: (dose: 1.9 micrograms/kg/injection, schedule: Q01DX009 (ip), vehicle: distilled water + alcohol) 102 % of control; (dose: 3.8 micrograms/kg/injection, schedule: Q01DX009 (ip), vehicle: distilled water + alcohol) 115 % of control; (dose: 7.5 micrograms/kg/injection, schedule: Q01DX009 (ip), vehicle: distilled water + alcohol) 120 % of control; (dose: 30.0 micrograms/kg/injection, schedule: Q01DX009 (ip), vehicle: distilled water + alcohol) 152 % of control.

With `CCOC(=O)C(C(=O)OCC)(C(=O)C(F)(F)C(F)(F)C(F)(F)C(F)(F)C(=O)C(C(=O)OCC)(C(=O)OCC)c1ccccc1)c1ccccc1`, the T/C reads like this: under setting [5], 93 % of control; under setting [6], 98 % of control; under setting [7], 89 % of control.

Turning to `O=C(O)c1c2c(nc3ccccc13)Cc1ccccc1-2`, the T/C is 97 % of control (dose: 6.25 mg/kg/injection, schedule: Q01DX009 (ip), vehicle: Klucel (hydroxypropylcellulose) (HPC)); 101 % of control (dose: 6.25 mg/kg/injection, schedule: Q01DX009 (ip), vehicle: water); 98 % of control under setting [1]; 99 % of control and 109 % of control (dose: 12.5 mg/kg/injection, schedule: Q01DX009 (ip), vehicle: water); 106 % of control under setting [2]; 104 % of control and 110 % of control and 114 % of control (dose: 25.0 mg/kg/injection, schedule: Q01DX009 (ip), vehicle: water). Moreover, the T/C by setting is: under setting [8], 110 % of control; (dose: 50.0 mg/kg/injection, schedule: Q01DX009 (ip), vehicle: water) 115 % of control and 121 % of control; under setting [3], 160 % of control and 169 % of control; (dose: 100.0 mg/kg/injection, schedule: Q01DX009 (ip), vehicle: water) 166 % of control and 172 % of control; (dose: 200.0 mg/kg/injection, schedule: Q01DX009 (ip), vehicle: Klucel (hydroxypropylcellulose) (HPC)) 172 % of control and 179 % of control; (dose: 200.0 mg/kg/injection, schedule: Q01DX009 (ip), vehicle: saline with Tween-80) 181 % of control. Further, the T/C (dose: 200.0 mg/kg/injection, schedule: Q01DX009 (ip), vehicle: water) was 106 % of control.

Consider `O=C1c2ccccc2C(=O)c2c(I)cccc21`, for which the T/C is 97 % of control under setting [9] and 97 % of control (dose: 100.0 mg/kg/injection, schedule: Q01DX005 (ip), vehicle: saline with Tween-80).

As for `CCCCOC(=O)C1C2CCC(O2)C1C(N)=O` (stereo not given), the T/C is 99 % of control under setting [5] and 100 % of control under setting [6].

Take `O=C1NN2CCN=C2c2ncccc21`: the T/C under setting [5] is 104 % of control, the T/C under setting [6] was 94 % of control and the T/C under setting [7] was 87 % of control.

`Cc1nn(-c2ccc(S(=O)(=O)[O-])cc2)c([O-])c1N=[N+](C)c1ccc(-c2ccc(N=Nc3ccc4c(S(=O)(=O)[O-])cc(S(=O)(=O)[O-])c(N)c4c3[O-])c([O-])c2)cc1[O-].[Cu+2].[Cu+2].[Na+]`: the T/C was 96 % of control (dose: 3.12 mg/kg/injection, schedule: Q01DX009 (ip), vehicle: saline with Tween-80); 96 % of control (dose: 6.25 mg/kg/injection, schedule: Q01DX009 (ip), vehicle: saline with Tween-80); 99 % of control and 86 % of control (dose: 12.5 mg/kg/injection, schedule: Q01DX009 (ip), vehicle: saline with Tween-80); 97 % of control under setting [10]; 96 % of control under setting [11].

Regarding `O=c1[nH]nc2ccc(n[nH]c1=O)c1ccccc21`, the T/C was 104 % of control (dose: 3.13 mg/kg/injection, schedule: Q01DX005 (ip), vehicle: saline with Tween-80); 107 % of control (dose: 6.25 mg/kg/injection, schedule: Q01DX005 (ip), vehicle: saline with Tween-80); 99 % of control and 103 % of control (dose: 12.5 mg/kg/injection, schedule: Q01DX005 (ip), vehicle: saline with Tween-80); 101 % of control (dose: 25.0 mg/kg/injection, schedule: Q01DX005 (ip), vehicle: saline with Tween-80); 104 % of control and 107 % of control under setting [9].

`CCOC(=O)N=C=S`: the T/C reads like this: under setting [8], 108 % of control; (dose: 100.0 mg/kg/injection, schedule: Q01DX009 (ip), vehicle: saline with Tween-80) 108 % of control.

Take `C1CSC(SCCCSC2SCCCS2)SC1`: the T/C is 99 % of control under setting [12], 104 % of control under setting [13] and 94 % of control under setting [14].

As to `NCC1OC(OC2C(CO)OC(OC3C(O)C(N)CC(N)C3OC3OC(CN)C(O)C(O)C3N)C2O)C(N)C(O)C1O` (stereo not given), the T/C (dose: 100.0 mg/kg/injection, schedule: Q01DX001 (ip), vehicle: saline) is 100 % of control and the T/C (dose: 200.0 mg/kg/injection, schedule: Q01DX001 (ip), vehicle: saline) is 96 % of control.

`O=S(=O)([O-])[O-].OCCNCCNCC[OH2+].OCCNCCNCC[OH2+].[Ni+2]`: the T/C by setting is: under setting [10], 102 % of control; under setting [15], 93 % of control.

As for `CCC1C2Cc3ccc(O)cc3C1(C)CCN2C` (stereo not given), the T/C was 100 % of control (dose: 12.5 mg/kg/injection, schedule: Q01DX005 (ip), vehicle: Klucel (hydroxypropylcellulose) (HPC)); 99 % of control (dose: 25.0 mg/kg/injection, schedule: Q01DX005 (ip), vehicle: Klucel (hydroxypropylcellulose) (HPC)); 102 % of control and 107 % of control under setting [4].

On to `CC(=O)N1CCc2cc(C(C)C)ccc21`, for which the T/C is 97 % of control (dose: 25.0 mg/kg/injection, schedule: Q01DX009 (ip), vehicle: other); 97 % of control (dose: 50.0 mg/kg/injection, schedule: Q01DX009 (ip), vehicle: other); 91 % of control (dose: 100.0 mg/kg/injection, schedule: Q01DX009 (ip), vehicle: other); 103 % of control (dose: 200.0 mg/kg/injection, schedule: Q01DX009 (ip), vehicle: other); 88 % of control (dose: 400.0 mg/kg/injection, schedule: Q01DX009 (ip), vehicle: other).

For `N=C=S.O=NO.O=N[O-].[Co+3].[NH-]CC[NH-].[NH-]CC[NH-]`, the T/C is 105 % of control (dose: 13.0 mg/kg/injection, schedule: Q01DX009 (ip), vehicle: saline); 113 % of control under setting [15]; 103 % of control under setting [11].

As to `O=C(/C=C/C(=O)Oc1cc(Cl)c(Cl)cc1Cl)Oc1cc(Cl)c(Cl)cc1Cl`, the T/C is, setting by setting: under setting [12], 96 % of control; under setting [13], 88 % of control; under setting [14], 97 % of control.

Take `C[N+]1(C)Cc2ccccc2C1`: the T/C runs as follows: under setting [10], 105 % of control; under setting [15], 108 % of control.
